Here are results for 7 molecules from ChEMBL document CHEMBL1201862, “PubChem BioAssay data set” (2004).

Assay [1] can be described thus: Fluorescence-based cell-based high throughput dose response assay for inhibitors of the interaction of nucleotide-binding oligomerization domain containing 2 (NOD2) and the receptor-interacting serine-threonine kinase 2 (RIPK2). Format: functional, Homo sapiens.
For another assay, the target named is T1, Caspase-3 (Homo sapiens, UniProt P42574).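 Note: Dose-response selectivity test against caspase-3 for candidate inhibitors of sentrin-specific proteases (SENPs).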
T1 sequence (P42574 whole entry): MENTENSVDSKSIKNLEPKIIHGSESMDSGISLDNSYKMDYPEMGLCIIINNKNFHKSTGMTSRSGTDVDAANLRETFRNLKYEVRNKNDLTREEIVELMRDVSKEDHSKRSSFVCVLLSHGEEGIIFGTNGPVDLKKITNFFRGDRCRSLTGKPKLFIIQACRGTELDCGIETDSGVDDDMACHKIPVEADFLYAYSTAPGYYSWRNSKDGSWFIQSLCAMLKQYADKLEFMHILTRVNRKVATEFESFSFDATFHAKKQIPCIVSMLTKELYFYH
Format: functional.

Assay [2] has as its target T2, Sentrin-specific protease 7 (Homo sapiens, UniProt Q9BQF6).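 Note: Luminescence-based dose-response confirmation of ultra-high-throughput screening hits, measuring inhibition of SENP7.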
T2 sequence (Q9BQF6 whole entry): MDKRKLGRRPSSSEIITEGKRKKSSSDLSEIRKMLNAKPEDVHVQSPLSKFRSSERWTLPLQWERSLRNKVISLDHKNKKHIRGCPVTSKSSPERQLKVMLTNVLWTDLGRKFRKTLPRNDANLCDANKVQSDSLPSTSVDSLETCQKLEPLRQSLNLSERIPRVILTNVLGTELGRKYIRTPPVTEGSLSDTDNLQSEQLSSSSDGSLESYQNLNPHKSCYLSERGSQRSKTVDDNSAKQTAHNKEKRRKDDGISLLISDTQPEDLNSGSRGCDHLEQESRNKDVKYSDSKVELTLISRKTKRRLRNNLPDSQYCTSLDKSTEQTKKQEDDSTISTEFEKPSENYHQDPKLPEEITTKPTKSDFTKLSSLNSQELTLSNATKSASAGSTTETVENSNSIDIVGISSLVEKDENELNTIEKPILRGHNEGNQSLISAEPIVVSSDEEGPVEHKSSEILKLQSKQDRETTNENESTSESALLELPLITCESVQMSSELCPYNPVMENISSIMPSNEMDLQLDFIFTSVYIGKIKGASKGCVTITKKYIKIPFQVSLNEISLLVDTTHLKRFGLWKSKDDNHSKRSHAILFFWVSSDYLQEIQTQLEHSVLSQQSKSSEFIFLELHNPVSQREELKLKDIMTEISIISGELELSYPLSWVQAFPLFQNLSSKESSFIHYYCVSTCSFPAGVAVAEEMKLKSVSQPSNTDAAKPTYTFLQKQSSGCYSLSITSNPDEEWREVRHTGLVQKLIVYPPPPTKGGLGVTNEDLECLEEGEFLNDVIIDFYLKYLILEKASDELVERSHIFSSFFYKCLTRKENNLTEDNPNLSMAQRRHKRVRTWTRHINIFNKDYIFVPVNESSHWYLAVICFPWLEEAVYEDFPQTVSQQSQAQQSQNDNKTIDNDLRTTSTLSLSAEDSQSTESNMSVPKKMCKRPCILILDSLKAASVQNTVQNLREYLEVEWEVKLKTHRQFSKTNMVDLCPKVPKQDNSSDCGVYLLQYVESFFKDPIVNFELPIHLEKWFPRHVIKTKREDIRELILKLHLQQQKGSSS
Type of assay: functional.

For assay [3], the target named is T3, Sentrin-specific protease 6 (Homo sapiens, UniProt Q9GZR1).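 Note: Luminescence-based dose-response confirmatory assay of SENP6 inhibition, following up an ultra-high-throughput screen.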
T3 sequence (Q9GZR1 whole entry): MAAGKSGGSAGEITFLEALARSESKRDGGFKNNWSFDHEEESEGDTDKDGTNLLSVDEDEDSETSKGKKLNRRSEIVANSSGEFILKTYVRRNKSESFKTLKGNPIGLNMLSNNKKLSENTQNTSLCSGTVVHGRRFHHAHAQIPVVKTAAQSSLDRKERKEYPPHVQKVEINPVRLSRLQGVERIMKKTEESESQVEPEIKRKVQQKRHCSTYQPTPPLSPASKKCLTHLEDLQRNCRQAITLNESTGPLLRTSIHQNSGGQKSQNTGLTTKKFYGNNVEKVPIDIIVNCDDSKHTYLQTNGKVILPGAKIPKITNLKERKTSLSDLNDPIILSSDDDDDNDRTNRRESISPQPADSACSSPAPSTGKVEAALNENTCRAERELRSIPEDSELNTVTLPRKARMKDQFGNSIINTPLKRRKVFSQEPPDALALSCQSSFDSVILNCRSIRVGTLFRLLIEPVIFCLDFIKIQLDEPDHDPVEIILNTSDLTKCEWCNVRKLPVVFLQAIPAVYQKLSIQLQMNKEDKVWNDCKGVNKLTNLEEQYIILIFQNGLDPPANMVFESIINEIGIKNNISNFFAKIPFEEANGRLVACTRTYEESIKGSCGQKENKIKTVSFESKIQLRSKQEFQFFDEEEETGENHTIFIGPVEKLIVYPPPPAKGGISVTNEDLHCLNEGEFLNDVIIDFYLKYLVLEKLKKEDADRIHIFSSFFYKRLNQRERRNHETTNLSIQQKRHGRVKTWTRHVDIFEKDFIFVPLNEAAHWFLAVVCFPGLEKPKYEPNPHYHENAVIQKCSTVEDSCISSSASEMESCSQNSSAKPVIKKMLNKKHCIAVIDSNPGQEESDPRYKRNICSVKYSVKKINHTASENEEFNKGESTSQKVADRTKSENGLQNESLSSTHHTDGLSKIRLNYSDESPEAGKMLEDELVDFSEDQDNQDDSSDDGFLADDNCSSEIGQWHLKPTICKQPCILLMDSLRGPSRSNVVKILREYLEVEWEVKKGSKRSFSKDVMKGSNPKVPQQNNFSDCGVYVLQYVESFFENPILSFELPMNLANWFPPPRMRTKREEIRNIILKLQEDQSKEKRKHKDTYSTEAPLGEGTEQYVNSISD
Type of assay: functional.

Assay [4] addresses T4, Sentrin-specific protease 8 (Homo sapiens, UniProt Q96LD8).
T4 sequence (Q96LD8 whole entry): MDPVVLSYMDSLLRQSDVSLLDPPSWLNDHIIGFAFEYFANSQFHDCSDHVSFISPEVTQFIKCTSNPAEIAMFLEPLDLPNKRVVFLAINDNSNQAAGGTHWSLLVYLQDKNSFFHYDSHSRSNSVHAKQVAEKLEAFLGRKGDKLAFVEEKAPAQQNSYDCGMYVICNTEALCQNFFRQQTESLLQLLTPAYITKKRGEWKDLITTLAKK
Type of assay: functional.

Assay [5] in a line: intracellular Trypanosoma cruzi inhibitors in host cells – cell-based, plate reader, cherry-pick samples, set 3, dose response (AID 651818).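 Note: compounds incubated with infected cells for about four days.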 Format: functional.
Assay [6] concerns the target T5, Microphthalmia-associated transcription factor (Homo sapiens, UniProt O75030).
T5 sequence (O75030 whole entry): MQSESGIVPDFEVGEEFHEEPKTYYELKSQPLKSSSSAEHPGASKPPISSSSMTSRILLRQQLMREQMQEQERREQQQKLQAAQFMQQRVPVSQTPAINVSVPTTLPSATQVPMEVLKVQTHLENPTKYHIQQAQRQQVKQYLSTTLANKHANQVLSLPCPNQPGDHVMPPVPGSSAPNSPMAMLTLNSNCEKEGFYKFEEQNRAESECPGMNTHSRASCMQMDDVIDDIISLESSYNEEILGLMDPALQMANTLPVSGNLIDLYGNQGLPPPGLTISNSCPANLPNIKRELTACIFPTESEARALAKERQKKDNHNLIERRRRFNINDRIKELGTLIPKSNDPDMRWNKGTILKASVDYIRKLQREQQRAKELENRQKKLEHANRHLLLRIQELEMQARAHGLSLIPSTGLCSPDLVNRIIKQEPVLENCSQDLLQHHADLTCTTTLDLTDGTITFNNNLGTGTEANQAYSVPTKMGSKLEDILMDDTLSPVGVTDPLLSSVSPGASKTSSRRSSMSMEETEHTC
Put plainly: reducers of TRPM1 reporter luminescence, concentration series – cell-based, SK-MEL-5, cherry-picked, set 3, MITF inhibitor project, dose response (AID 493073).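 Note: SK-MEL-5 melanoma cells with luciferase driven by the MITF target TRPM1 promoter.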 Format: functional.

Activity calls are given as the source filed them. Cut-off read from the data, not from the text of the source, for most assays here: actives have a measured IC50 and inactives only a lower limit.

Broadly, the IC50 is the concentration that inhibits the measured activity by half. Consider `CC(=O)OCC12CC(OC(=O)CC(C)C)C(C)=CC1OC1C(O)C(OC(C)=O)C2(C)C12CO2` (centres undefined), for which the IC50 in assay [1] is 49.8 µM (inactive).
On to `Cc1n[nH]c(O)c1N=Nc1ccc(Br)c(Cl)c1`, for which the IC50 at Caspase-3 is 2.41 µM (active); in assay [2], 2.2 µM (active); in assay [3], 3.79 µM (active); in assay [4], 2.43 µM (active).
The term AC50 denotes the concentration giving half of the maximal activity seen. On to `C[C@@H]1CCCCO[C@H](CN(C)C(=O)Nc2ccccc2)[C@@H](C)CN([C@H](C)CO)C(=O)c2cc(NC(=O)Nc3ccc(C(F)(F)F)cc3)ccc2O1`, for which, in assay [5], the AC50 was 4.2 µM (active).
The same measure, in the same setting: in the case of `Cc1ccc(S(=O)(=O)N(C)C[C@H]2Oc3c(NC(=O)c4ccncc4)cccc3C(=O)N([C@H](C)CO)C[C@@H]2C)cc1` it was 6.3 µM (active).
The same measure, in the same setting: next, `C[C@@H]1CN([C@H](C)CO)C(=O)Cc2cc(NC(=O)Cc3ccccc3)ccc2O[C@@H]1CN(C)Cc1ccc(-c2ccccc2)cc1`: 6.35 µM (active); `C[C@@H]1CN([C@@H](C)CO)C(=O)c2cccc(NS(=O)(=O)c3ccc(Cl)cc3)c2O[C@@H]1CN(C)Cc1ccc(-c2ccccc2)cc1`: 2.97 µM (active).
In the case of `Cc1[nH]n(-c2ccccc2)c(=O)c1N=Nc1cccc(C(=O)O)c1`, the IC50 on Caspase-3 is > 100 µM (inactive); in assay [2], 15.2 µM (active); in assay [3] it was 21.5 µM (active); in assay [4], 35.5 µM (active). Further, in assay [6], the AC50 was 8.07 µM (active).
